Test results reported in patent publication US9579406B2, “Phospholipid ether analogs as agents for detecting and locating cancer, and methods thereof” (Cellectar, Inc., priority 2004, dated 2017).
Entries after “also recorded” stand apart in the source; their conditions may differ.

Tests used:
[1] = MIRDOSE radiation dose estimates for the adult female; set-up: species or system human (from female rat biodistribution data)
Description: Dosimetry estimation regarding I-125-NM404 for an adult female patients were calculated based on SPECT imaging data using female non-tumor bearing rats following administration of I-131-NM404. The results are listed below:
The dosimetry data were calculated from SPECT imaging in rats using I-131-NM404 and then converted to I-125-NM404. The adrenal gland seems to be the dose-limiting or critical organ for radiation exposure. In the SPECT imaging experiments the thyroids of rats were unblocked. Thus, the thyroid calculations should be evaluated with caution.

[2] = tested on: mammary and intestinal tumors; assay: Apparent therapeutic responses in Apc Min/+ mammary and intestinal tumor mice; assay type: in vivo, Apc^Min/+ mouse
Excerpt: During the course of mouse tumor uptake and retention studies with “imaging” doses (15-20 μCi/20 g mouse) of ^125I-labeled NM404, several apparent therapeutic responses have been observed (unpublished results). […] Some of these animals also lost all hair above larger mammary tumors at around 8 days after injection. Moreover, these mice also get intestinal tumors and usually suffer from intestinal bleeding resulting in severe anemia, which renders their feet white. Dr. Moser noted that the feet of these mice had reverted to a pink color around 5 days after a single injection of NM404. […] Another compelling example of tumor regression is illustrated in FIG. 6. Two litter mates each received SCC1 and SCC6 xenografts in their left and right flanks, respectively. One mouse received a single injection of ^125I-NM404 (20 μCi). […] These coincidental findings were reconfirmed in two separate age-matched groups each involving more than 6 mice. Although these observations with ^125I-NM404 are anecdotal at this point, they do seem to strongly indicate potential for radiotherapy applications particularly if labeled with iodine-131. Ongoing quantitative tumor uptake and retention studies in several animal tumor models will also provide sufficient data to initiate a comprehensive dosimetry analysis for this agent in order to estimate its true radiotherapeutic potential.

[3] = tested on: human PC-3 tumor cells in tibia; assay: Intratibial PC-3 bone tumor model, radioactivity scan fused with microCT; assay type: in vivo, NUDE mice; conditions: 4 days following injection
Description: (§1) Following in vivo imaging of anesthetized mice, the prostate tumors were removed immediately, and imaged ex vivo on the same scanner (equipped with high resolution 1 mm collimator and 2-D acquisition and analysis software) in order to avoid tissue attenuation associated with the low energy of iodine-125 (FIG. 21). […] In an attempt to simulate bone metastases another experiment was performed wherein human PC-3 tumor cells were implanted into the tibia of immune compromised NUDE mice (n=6) according to a recent reports. Following tumor cell inoculation, mice were scanned serially by high-resolution microCT in order to monitor bone tumor development (FIG. 22). Once bone deterioration was detected, iodine-125 labeled NM404 was administered intravenously via tail vein. Mice were scanned for radioactivity and by microCT 4 days post NM404 administration. Radioactivity scans were fused with microCT scans (FIG. 23) to corroborate NM404 radioactivity and tumor location.

[4] = tested on: A549 lung, PC-3 prostate, c-myc pancreatic tumors; assay: microPET imaging in lung, prostate and pancreatic mouse tumor models; assay type: in vivo
Excerpt: Human pharmacokinetic studies have confirmed this finding as only 4% of the agent is cleared renally within 4 days of iv injection (majority is excreted via GI route).

[5] = tested on: TRAMP prostate tumors; assay: Bioscan imaging of TRAMP mice prostate tumors; assay type: in vivo; conditions: 125I label 15 μCi, 1-8 days
Description: as §1

[6] = Acute GLP toxicology, single dose, 14 days observation, rabbits; assay type: in vivo
Description: Formal toxicology studies of NM404 in male rats and rabbits were performed at the Toxicology Research Center of the State University of New York at Buffalo under the direction of Dr. Paul Kostyniak. Drug vehicle and drug product were provided to Dr. Kostyniak by Dr. Raymond Counsell of the University of Michigan for testing as described in the appended synopses of Study 27 and Study 28. […] Human safety studies of unlabeled NM404 were initiated in normal male humans at a mass of 10 times the anticipated imaging dose and about 21 times the anticipated therapy dose. […] This toxicology study was performed under GLP conditions.
Subsequently, the researchers at the University of Wisconsin initiated a toxicology study of unlabeled NM404 in female rats and rabbits (Study 31 and Study 32) at the Toxicology Research Center at SUNY-Buffalo in order to expand the patient population to be studied in the NSCLC Phase 1 clinical trial. […] Human safety studies of unlabeled NM404 were initiated in normal female humans at a mass of 10 times the initially anticipated imaging dose and about 21 times the anticipated therapy dose. […] This toxicology study was performed under GLP conditions.

[7] = tested on: MAT LyLu cells; assay: Gamma camera scintigraphy in rat Dunning R3327 (MAT LyLu) prostate cancer model
Description: The MatLyLu (Dunning R3327 rat) model, a rat prostate tumor line, was used specifically to screen 9 specific analogs prior to entering them into control for dosimetry and tumor-bearing animals for determining tumor/background ratios.
In order to expedite the screening process and minimize the number of tumor bearing animals utilized in multiple time point tissue distribution studies, new radioiodinated homologs were imaged by gamma camera scintigraphy in the rat Dunning R3337 (MAT LyLu strain) prostate cancer model. […] Gamma camera images were obtained at multiple time points including 24 and 48 hours post injection.
The new PLE analogs were synthesized and radiolabeled with ^125I for initial image analysis in Copenhagen rats bearing Dunning R3327 prostate tumors.

[8] = tested on: SCC1 and 6; assay: Tumor models examined with NM404 (Table 2); assay type: in vivo, Nude mouse xenograft; conditions: Squamous cell carcinoma
Excerpt: (§2) NM404 has now been evaluated in 27 animal tumor models, including several lung, and it is clear that once the agent enters tumor cells, it reaches a metabolic dead end and becomes trapped. […] NM404 is also retained in spontaneous murine lung tumors (FIG. 13). Using ^125I-labeled NM404, the inventors have been able to image mammary and prostate tumors in mice in excess of 60 days. […] Imaging and tissue distribution studies performed in mouse models aimed at determining the uptake characteristics in a wide variety of tumor models are summarized in Table 2.
(§3) Although tumor retention can be explained by a lack of metabolic phospholipase enzymes in the tumor cell membranes, the exact mechanism of tumor cell uptake is unknown. […] The inventors are currently evaluating the selectivity of NM404 in a unique mouse tumor model developed at Wisconsin, wherein both preneoplastic hyperplasias and malignant adenocarcinomas form spontaneously in the mammary gland. […] If this initial observation is validated, then via genomic and or proteomic analysis the inventors may be able to identify a key genetic difference between malignant tumors and their non malignant predecessor cells. This could identify a completely new molecular therapeutic target that may be universal for all types of cancer.

[9] = Acute GLP toxicology, single iv dose, 14 days observation, rats; assay type: in vivo; conditions: female rats
[10] = tested on: Colon LS-180; assay: Tumor models examined with NM404 (Table 2); assay type: in vivo, Nude Mouse; conditions: Adenocarcinoma
Excerpt: as §2, §3

[11] = tested on: Adrenal RL-251; assay: Tumor models examined with NM404 (Table 2); assay type: in vivo, SCID Mouse; conditions: Adenocarcinoma
Excerpt: as §2, §3

[12] = tested on: Prostate PC-3; assay: Tumor models examined with NM404 (Table 2); assay type: in vivo, SCID Mouse; conditions: Adenocarcinoma
Excerpt: as §2, §3

[13] = tested on: Adrenal H-295; assay: Tumor models examined with NM404 (Table 2); assay type: in vivo, SCID Mouse; conditions: Adenocarcinoma
Excerpt: as §2, §3

[14] = tested on: Lung A-549 (NSCC); assay: Tumor models examined with NM404 (Table 2); assay type: in vivo, SCID Mouse; conditions: Adenocarcinoma
Excerpt: as §2, §3

SMILES: C[N+](C)(C)CCOP(=O)([O-])OCCCCCCCCCCCCCCCCCCc1ccc([125I])cc1 [Compound I-125-NM404]
- activity for 3 rads to Ovaries [1]: 20 mCi
- activity for 5 rads to Adrenals [1]: 18 mCi
- activity for 5 rads to Thyroids [1]: 4.5 mCi
- survival versus untreated litter mates ([2]; after 21 days, both intestinal models): easily outlived their untreated litter mates
- intestinal tumors remaining at dissection ([2]; single injection): only a very few, if any
- mammary tumor growth ([2]; single iv injection, 15-20 μCi/20 g mouse): tumor growth remains static
- correlation of radioactivity with tibial tumor [3]: Focal NM404 activity correlates well with tibial PC3 tumor

SMILES: C[N+](C)(C)CCOP(=O)([O-])OCCCCCCCCCCCCCCCCCCc1ccc(I)cc1 [NM-404, 18-(4-iodophenyl)-octadecylphosphocholine]
- time to tumor uptake ([4]; after injection): ≤ 6 h
- tumor avidity ([4]; mouse, in vivo): significant tumor avidity regardless of location in the body
- uptake into prostate tumor and benign hyperplasia [5]: uptake of NM404 into prostate tumor but not benign hyperplasia; also recorded: intense uptake of radioactivity in the prostate tumor
- toxic effects ([6]; female rabbits, 0.04 mg/kg (Study 32)): no significant toxic effects were noted
- adverse effects ([6]; male and female rabbits): no adverse effects attributable to the test article were noted
- toxic effects ([6]; male rabbits, 4 mg/kg (Study 28)): no significant toxic effects were noted
- acute toxicity ([6]; unlabeled, 1200 times the anticipated imaging mass dose): no acute toxicities were found
- liver activity and tumor retention in initial image screen ([7]; 125I-labeled): much lower liver activity than its predecessor NM324 but also maintained prolonged tumor retention
- tumor uptake and liver/abdominal radioactivity by gamma camera imaging ([7]; tumor-bearing rats, 24 and 48 hours post injection): readily visualized
- NM404 Tumor Localization [8]: Yes (Localization defined as >5% injected dose per gram tumor basis based on tissue distribution data)
- adverse effects [9]: no adverse effects attributable to the test article were noted
- toxic effects ([9]; 0.04 mg/kg (Study 31)): no significant toxic effects were noted
- NM404 Tumor Localization [10]: Yes (Localization defined as >5% injected dose per gram tumor basis based on tissue distribution data)
- NM404 Tumor Localization [11]: Yes (Localization defined as >5% injected dose per gram tumor basis based on tissue distribution data)
- NM404 Tumor Localization [12]: Yes (Localization defined as >5% injected dose per gram tumor basis based on tissue distribution data)
- NM404 Tumor Localization [13]: Yes (Localization defined as >5% injected dose per gram tumor basis based on tissue distribution data)
- NM404 Tumor Localization [14]: Yes (Localization defined as >5% injected dose per gram tumor basis based on tissue distribution data)
